Reference: paper PMC2819846 (Mutation research, 2008)
Where two headings read alike, the source gives them in different places.

Key:
Salmonella TA100 = experiment: Salmonella plate-incorporation mutagenicity assay, strain TA100; format: cell-based; conditions: for Mutagenic potency, Revertants/µg ± S.E., TA100 / Mutagenicity call TA100: plate-incorporation, +S9
Salmonella TA98 = experiment: Salmonella plate-incorporation mutagenicity assay, strain TA98, with S9 mix; format: cell-based; conditions: for Mutagenic potency, Revertants/µg ± S.E., TA98 / Mutagenicity call TA98: plate-incorporation, +S9
strain TA100 = format: cell-based, Salmonella; conditions: TA100 liquid-suspension; for Rev/10^6 survivors: DMSO 0.8; for Percent survival: DMSO 100
[1] = test system: DNA from Salmonella TA100; experiment: Stable DNA adducts by 32P-postlabeling in DNA of treated TA100; format: cell-based; conditions: DMSO 0.024 ± 0.000
[2] = test system: DNA from Salmonella TA100; experiment: Abasic sites by aldehydic-site assay in DNA of treated TA100; format: cell-based; conditions: DMSO 5.9 ± 0.33
Salmonella TA104 = experiment: Salmonella plate-incorporation mutagenicity assay, strain TA104, with S9 mix; format: cell-based
[3] = TA100 +S9, Test 1, 2 µg/plate, zero-dose 99/110/110
[4] = TA100 +S9, Test 1, 5 µg/plate, zero-dose 99/110/110
[5] = TA100 +S9, Test 1, 10 µg/plate, zero-dose 99/110/110
[6] = TA100 +S9, Test 1, 20 µg/plate, zero-dose 99/110/110
[7] = TA100 +S9, Test 1, 40 µg/plate, zero-dose 99/110/110
[8] = TA100 +S9, Test 1, 80 µg/plate, zero-dose 99/110/110
[9] = TA100 +S9, Test 2, 1 µg/plate, zero-dose 84/78/80
[10] = TA100 +S9, Test 2, 5 µg/plate, zero-dose 84/78/80
[11] = TA100 +S9, Test 3, 1 µg/plate, zero-dose 127/118/125
[12] = TA100 +S9, Test 3, 5 µg/plate, zero-dose 127/118/125
[13] = TA98 +S9, Test 1, 2 µg/plate, zero-dose 33/40/39
[14] = TA98 +S9, Test 1, 5 µg/plate, zero-dose 33/40/39
[15] = TA98 +S9, Test 1, 10 µg/plate, zero-dose 33/40/39
[16] = TA98 +S9, Test 1, 20 µg/plate, zero-dose 33/40/39
[17] = TA98 +S9, Test 1, 40 µg/plate, zero-dose 33/40/39
[18] = TA98 +S9, Test 1, 80 µg/plate, zero-dose 33/40/39
[19] = TA98 +S9, Test 2, 10 µg/plate, zero-dose 43/41/30
[20] = TA98 +S9, Test 3, 10 µg/plate, zero-dose 49/50/50
[21] = TA104 +S9, Test 2, 1 µg/plate, zero-dose 276/260/270
[22] = TA104 +S9, Test 2, 5 µg/plate, zero-dose 276/260/270
[23] = TA104 +S9, Test 3, 1 µg/plate, zero-dose 402/395/336
[24] = TA104 +S9, Test 3, 5 µg/plate, zero-dose 402/395/336

Structure (SMILES): O[C@@H]1C=Cc2c(ccc3ccc4sccc4c23)[C@H]1O (racemic) [P[3,4-b]T 8,9-diol, (±)-trans-8,9-Dihydrophenanthro[3,4-b]thiophene 8,9-diol]
- Rev/plate (Salmonella TA100; [3]): 326 rev/plate
- Rev/plate (Salmonella TA100; [4]): 554 rev/plate
- Rev/plate (Salmonella TA100; [5]): 755 rev/plate
- Rev/plate (Salmonella TA100; [6]): 995 rev/plate
- Rev/plate (Salmonella TA100; [7]): 992 rev/plate
- Rev/plate (Salmonella TA100; [8]): 847 rev/plate
- Rev/plate (Salmonella TA100; TA100 +S9, Test 2, 0.5 µg/plate, zero-dose 84/78/80): 80/94
- Rev/plate (Salmonella TA100; [9]): 140/116
- Rev/plate (Salmonella TA100; TA100 +S9, Test 2, 2.5 µg/plate, zero-dose 84/78/80): 268/224
- Rev/plate (Salmonella TA100; [10]): 352/315
- Rev/plate (Salmonella TA100; TA100 +S9, Test 3, 0.5 µg/plate, zero-dose 127/118/125): 147/151
- Rev/plate (Salmonella TA100; [11]): 178/187
- Rev/plate (Salmonella TA100; TA100 +S9, Test 3, 2.5 µg/plate, zero-dose 127/118/125): 347/430
- Rev/plate (Salmonella TA100; [12]): 545/614
- Mutagenic potency, Revertants/µg ± S.E., TA100 (Salmonella TA100): 80.0 ± 13.2 rev/µg
- Mutagenicity call TA100 (Salmonella TA100): (+) (Called mutagenic (+) based on showing reproducible, dose-related increases in rev/plate that reached or exceeded 2-fold relative to zero-dose controls)
- Rev/plate (Salmonella TA98; [13]): 61 rev/plate
- Rev/plate (Salmonella TA98; [14]): 87 rev/plate
- Rev/plate (Salmonella TA98; [15]): 94 rev/plate
- Rev/plate (Salmonella TA98; [16]): 156 rev/plate
- Rev/plate (Salmonella TA98; [17]): 285 rev/plate
- Rev/plate (Salmonella TA98; [18]): 412 rev/plate
- Rev/plate (Salmonella TA98; [19]): 104/110
- Rev/plate (Salmonella TA98; TA98 +S9, Test 2, 20 µg/plate, zero-dose 43/41/30): 124/134
- Rev/plate (Salmonella TA98; TA98 +S9, Test 2, 40 µg/plate, zero-dose 43/41/30): 276/244
- Rev/plate (Salmonella TA98; TA98 +S9, Test 2, 80 µg/plate, zero-dose 43/41/30): 381/323
- Rev/plate (Salmonella TA98; [20]): 143/142
- Rev/plate (Salmonella TA98; TA98 +S9, Test 3, 20 µg/plate, zero-dose 49/50/50): 193/190
- Rev/plate (Salmonella TA98; TA98 +S9, Test 3, 40 µg/plate, zero-dose 49/50/50): 315/359
- Rev/plate (Salmonella TA98; TA98 +S9, Test 3, 80 µg/plate, zero-dose 49/50/50): 448/459
- Mutagenic potency, Revertants/µg ± S.E., TA98 (Salmonella TA98): 5.6 ± 0.8 rev/µg
- Mutagenicity call TA98 (Salmonella TA98): (+) (Called mutagenic (+) based on showing reproducible, dose-related increases in rev/plate that reached or exceeded 2-fold relative to zero-dose controls)
- Fold increase in mutant frequency relative to DMSO-treated cells (strain TA100; 2 µg/ml): 2.5 fold
- Rev/10^6 survivors (strain TA100; 2 µg/ml): 2.0 Rev/10^6 survivors
- Percent survival (strain TA100; 2 µg/ml): 91%
- Fold increase in mutant frequency relative to DMSO-treated cells (strain TA100; 5 µg/ml): 2.8 fold
- Rev/10^6 survivors (strain TA100; 5 µg/ml): 2.2 Rev/10^6 survivors
- Percent survival (strain TA100; 5 µg/ml): 63%
- Stable adducts/10^8 nucleotides ± S.E ([1]; TA100, 2 µg/ml): 0.170 ± 0.045 adducts/10^8 nucleotides
- Stable adducts/10^8 nucleotides ± S.E ([1]; TA100, 5 µg/ml): 0.750 ± 0.045 adducts/10^8 nucleotides
- Abasic sites/10^5 nucleotides ± S.E ([2]; TA100, 2 µg/ml): 2.9 ± 0.23 sites/10^5 nucleotides
- Abasic sites/10^5 nucleotides ± S.E ([2]; TA100, 5 µg/ml): 4.7 ± 0.25 sites/10^5 nucleotides
- Rev/plate (Salmonella TA104; TA104 +S9, Test 2, 0.5 µg/plate, zero-dose 276/260/270): 486/465
- Rev/plate (Salmonella TA104; [21]): 213/673
- Rev/plate (Salmonella TA104; TA104 +S9, Test 2, 2.5 µg/plate, zero-dose 276/260/270): 1311/1300
- Rev/plate (Salmonella TA104; [22]): 1723/1755
- Rev/plate (Salmonella TA104; TA104 +S9, Test 3, 0.5 µg/plate, zero-dose 402/395/336): 566/525
- Rev/plate (Salmonella TA104; [23]): 754/785
- Rev/plate (Salmonella TA104; TA104 +S9, Test 3, 2.5 µg/plate, zero-dose 402/395/336): 1235/1287
- Rev/plate (Salmonella TA104; [24]): 1508/1620
- Mutagenic potency, Revertants/µg ± S.E., TA104 (Salmonella TA104; plate-incorporation, +S9): 369 ± 28 rev/µg
- Mutagenicity call TA104 (Salmonella TA104; plate-incorporation, +S9): (+) (Called mutagenic (+) based on showing reproducible, dose-related increases in rev/plate that reached or exceeded 2-fold relative to zero-dose controls)

Structure (SMILES): c1ccc2c(c1)ccc1ccc3ccsc3c12 [P[4,3-b]T, Phenanthro[4,3-b]thiophene]
- Rev/plate (Salmonella TA100; [3]): 172 rev/plate
- Rev/plate (Salmonella TA100; [4]): 194 rev/plate
- Rev/plate (Salmonella TA100; [5]): 190 rev/plate
- Rev/plate (Salmonella TA100; [6]): 125 rev/plate
- Rev/plate (Salmonella TA100; [7]): 188 rev/plate
- Rev/plate (Salmonella TA100; [8]): 164 rev/plate
- Rev/plate (Salmonella TA100; [9]): 80/84
- Rev/plate (Salmonella TA100; TA100 +S9, Test 2, 2 µg/plate, zero-dose 84/78/80): 92/89
- Rev/plate (Salmonella TA100; [10]): 116/108
- Rev/plate (Salmonella TA100; TA100 +S9, Test 2, 10 µg/plate, zero-dose 84/78/80): 119/98
- Rev/plate (Salmonella TA100; [11]): 142/160
- Rev/plate (Salmonella TA100; TA100 +S9, Test 3, 2 µg/plate, zero-dose 127/118/125): 185/164
- Rev/plate (Salmonella TA100; [12]): 218/248
- Rev/plate (Salmonella TA100; TA100 +S9, Test 3, 10 µg/plate, zero-dose 127/118/125): 274/291
- Rev/plate (Salmonella TA100; TA100 +S9, Test 4, 1 µg/plate, zero-dose 112/140/115): 160/156
- Rev/plate (Salmonella TA100; TA100 +S9, Test 4, 2 µg/plate, zero-dose 112/140/115): 164/156
- Rev/plate (Salmonella TA100; TA100 +S9, Test 4, 5 µg/plate, zero-dose 112/140/115): 218/198
- Rev/plate (Salmonella TA100; TA100 +S9, Test 4, 10 µg/plate, zero-dose 112/140/115): 275/234
- Mutagenic potency, Revertants/µg ± S.E., TA100 (Salmonella TA100): 12.8 ± 3.9 rev/µg
- Mutagenicity call TA100 (Salmonella TA100): (+) (Called mutagenic (+) based on showing reproducible, dose-related increases in rev/plate that reached or exceeded 2-fold relative to zero-dose controls)
- Rev/plate (Salmonella TA98; [13]): 61 rev/plate
- Rev/plate (Salmonella TA98; [14]): 137 rev/plate
- Rev/plate (Salmonella TA98; [15]): 141 rev/plate
- Rev/plate (Salmonella TA98; [16]): 146 rev/plate
- Rev/plate (Salmonella TA98; [17]): 158 rev/plate
- Rev/plate (Salmonella TA98; [18]): 105 rev/plate
- Rev/plate (Salmonella TA98; TA98 +S9, Test 2, 1 µg/plate, zero-dose 43/41/30): 39/49
- Rev/plate (Salmonella TA98; TA98 +S9, Test 2, 2 µg/plate, zero-dose 43/41/30): 41/33
- Rev/plate (Salmonella TA98; TA98 +S9, Test 2, 5 µg/plate, zero-dose 43/41/30): 97/77
- Rev/plate (Salmonella TA98; [19]): 110/79
- Rev/plate (Salmonella TA98; TA98 +S9, Test 3, 1 µg/plate, zero-dose 49/50/50): 93/74
- Rev/plate (Salmonella TA98; TA98 +S9, Test 3, 2 µg/plate, zero-dose 49/50/50): 98/77
- Rev/plate (Salmonella TA98; TA98 +S9, Test 3, 5 µg/plate, zero-dose 49/50/50): 162/166
- Rev/plate (Salmonella TA98; [20]): 194/213
- Mutagenic potency, Revertants/µg ± S.E., TA98 (Salmonella TA98): 13.7 ± 3.3 rev/µg
- Mutagenicity call TA98 (Salmonella TA98): (+) (Called mutagenic (+) based on showing reproducible, dose-related increases in rev/plate that reached or exceeded 2-fold relative to zero-dose controls)
- Rev/plate (Salmonella TA104; [21]): 392/313
- Rev/plate (Salmonella TA104; TA104 +S9, Test 2, 2 µg/plate, zero-dose 276/260/270): 414/432
- Rev/plate (Salmonella TA104; [22]): 419/440
- Rev/plate (Salmonella TA104; TA104 +S9, Test 2, 10 µg/plate, zero-dose 276/260/270): 437/473
- Rev/plate (Salmonella TA104; [23]): 457/397
- Rev/plate (Salmonella TA104; TA104 +S9, Test 3, 2 µg/plate, zero-dose 402/395/336): 468/515
- Rev/plate (Salmonella TA104; [24]): 490/505
- Rev/plate (Salmonella TA104; TA104 +S9, Test 3, 10 µg/plate, zero-dose 402/395/336): 489/509
- Rev/plate (Salmonella TA104; TA104 +S9, Test 4, 1 µg/plate, zero-dose 482/455/462): 517/524
- Rev/plate (Salmonella TA104; TA104 +S9, Test 4, 2 µg/plate, zero-dose 482/455/462): 532/540
- Rev/plate (Salmonella TA104; TA104 +S9, Test 4, 5 µg/plate, zero-dose 482/455/462): 540/497
- Rev/plate (Salmonella TA104; TA104 +S9, Test 4, 10 µg/plate, zero-dose 482/455/462): 520/592
- Mutagenic potency, Revertants/µg ± S.E., TA104 (Salmonella TA104; plate-incorporation, +S9): 58.9 ± 7.9 rev/µg
